What all share (assay type): physicochemical
The nature of series [1]: Kinetic solubility in biorelevant media. Particulars: for Kinetic solubility, Mean conc: 37° C. As for the experimental part: A small-scale kinetic solubility study was carried out at a nominal concentration of 200-400 mg/ml to ensure solid material remained at the end of the experiment for XRPD analysis. Approximately 100 mg of sample—Form 1 (batch ref L17-0004-S-8002) or Form 3 (Example 5.4.1 (batch ref. 491PAL22; A-19-0132)) was weighed into a 1 ml vial and 250 μl of 0.1 M HCl was added to the vial for the 15 and 30 minute timepoints and 500 μl of a 1:1 mixture of 0.1 M HCl and FaSSIF was added to the vial for the 60 and 180 minute timepoints, The vial was agitated and maintained at 37° C.
The study was carried out in duplicate. Each sample was centrifuged to remove suspended solids. An aliquot of the supernatant was transferred to a second vial for further centrifugation and then transferred to an LC vial, diluted with an appropriate solvent and analysed by HPLC for parent compound. The residual solids were analysed by XRPD.

Series [2] is described as follows: Compaction testing (Heckel analysis). Particulars: for True Density: Helium Pycnometry; for Loss on Drying - end: end of compression testing; for Loss on Drying - end / Loss on Drying - start: 105° C.; for Yield pressure slow: punch speed 0.1 mm/s; for Yield pressure fast: punch speed 300 mm/s; for Loss on Drying - start: start of compression testing. An excerpt: Samples of Form 1 and Form 3 were subjected to Heckel analysis to determine the yield pressure of the material upon compression under controlled conditions. A known weight of material was compressed within a 10 mm diameter die with flat faced punches moving at a set speed. The die was lubricated with magnesium stearate in acetone. The force on the punch was accurately measured at frequent intervals whilst the displacement of the punches was used to calculate the volume of the powder. The yield pressure was calculated at slow (0.1 mm/s) and fast (300 mm/s) punch speeds to assess the time dependant component to deformation of the material. The true density of the material was determined by Helium Pycnometry (Micromeritics AccuPyc II 1340) using a purge pressure and run fill pressure of 19.5 psig and an equilibration rate of 0.02 psig. Testing was performed in duplicate. Temperature and humidity were monitored at intervals during the testing.
The data were analysed by the Compaction Analysis software programme to generate values for yield pressure (Py) using the Heckel equation: ln(1/1−D)=kP+A where D=the relative density of the compact; P=Pressure applied; and K=Gradient of the line in the linear region [Heckel, Trans. Metall. Soc. AIME 221 (1961)1001-1008].
Strain Rate Sensitivity (SRS) can be calculated to determine whether the deformation characteristics of the material change with the rate of applied force. The yield pressure at high speed compression is compared to that at slow speed using the following equation [Roberts and Roe, Chem. Eng. Sci. 42(1987) p. 903]. % SRS=100×[(Py Fast−Py Slow)/Py Slow]
Loss on drying was carried out on the samples at the start and at the end of compression testing to monitor for moisture absorption during testing. A sample size of 2.0 g±0.2 g was spread onto an aluminium tray and dried until stable at 105° C. using a Mettler HB43-S Halogen moisture balance.

Series [3] can be described thus: Typical water content of the crystalline forms. The method, then:
The water content of a sample can be determined by any suitable means as will be apparent to one of skill in the art. In one embodiment, the water content is determined by Karl-Fischer titration. In one embodiment, the water content is determined by thermogravimetric analysis (TGA). In one embodiment, the water content is determined by gravimetric vapour sorption (GVS). After formation of the crystalline complex according to the invention, the water content may be as low as 1-3% w/w. However, after exposure of the complex to ambient conditions (25° C., 40% RH) the material typically equilibrates (e.g. over a period of 3-7 days) to a water content of up to 5-7% w/w. It has been found, however, that Form 3, once equilibrated to 5-7% w/w water, maintains physical form at 60% RH making it unexpectedly stable over the 0% and 60% humidity range.

A short description of a further series: Compression testing. Particulars: 20 kg, 50 kg and 100 kg for 2 minutes each. As for the experimental part:
15 mg samples of Example 3 (Form 3) were compressed into 3 mm recess discs under 20 kg, 50 kg and 100 kg of pressure for 2 minutes each.

A short description of series [4]: Aqueous manipulation (slurry in water, XRPD). As for the experimental part:
Example 3—Form 3 (100 mg) was placed in a 4 ml vial, to which H2O (200 μl, 2 volumes) was added. The sample was capped and left at ambient temperature overnight. A spatula fill of the slurry was placed in a well and analysed by XRPD in transmission mode. The XRPD analysis was repeated every 5 minutes for 36 minutes on the same sample in the well. An XRPD was recorded 4 hours later too.

Series [5] is described as follows: Storage at high humidity and/or elevated temperature. The method, then:
A sample of Example 3 (Form 3) was stored at 25° C. and 97% RH for 7 days.
A sample of Example 3 (Form 3) was stored at 40° C. and 75% RH for 7 days.

The mark [6] stands for this setting: 15 mins (simulated gastric), 0.1 M HCl, Form 3 = Example 5.4.1.
[7] abbreviates: 30 mins (simulated gastric), 0.1 M HCl.
The mark [8] stands for this setting: 60 mins (simulated intestinal), 1:1 0.1 M HCl and FaSSIF.
Where [9] appears, read: 180 mins (simulated intestinal), 1:1 0.1 M HCl and FaSSIF.

Values joined by “and” are separate entries in the source; they are usually repeats but may differ in a detail not shown here. Identical values can stand only once.

Here are results for 2 compounds from patent US12590057B2, “Crystalline complexes” (Theracryf PLC, priority 2020, dated 2026).

As for `C[S+]([O-])CCCCN=C=S.OCC1OC2OC3C(CO)OC(OC4C(CO)OC(OC5C(CO)OC(OC6C(CO)OC(OC7C(CO)OC(OC1C(O)C2O)C(O)C7O)C(O)C6O)C(O)C5O)C(O)C4O)C(O)C3O` (stereo not shown) [Form 1], the “XRPD analysis of residual solids” value in series [1] (15 mins (simulated gastric)), in series [1] (30 mins (simulated gastric)), in series [1] (60 mins (simulated intestinal)) and in series [1] (180 mins (simulated intestinal)) was “Form 1” each time. Besides, the “Kinetic solubility, Mean conc” value in series [1] (setting [6]) was “approximately 300 mg/ml”; in series [1] (15 mins (simulated gastric), 0.1 M HCl, Form 3 = Example 5.4.1, listed as 1), 319 mg/mL; in series [1] (setting [7]) it was 318 mg/mL; in series [1] (setting [8]) it was “approximately 180 mg/ml”; in series [1] (60 mins (simulated intestinal), 1:1 0.1 M HCl and FaSSIF, listed as 1) it was 191 mg/mL; in series [1] (setting [9]), “approximately 180 mg/ml”. Besides, in series [1] (180 mins (simulated intestinal), 1:1 0.1 M HCl and FaSSIF, listed as 1), the “Kinetic solubility, Mean conc” value is 180 mg/mL. Further, in series [2], the compaction classification entry is listed as “soft ductile”. In addition, the “sticking on punch or die wall” value in series [2] is on record as “no evidence of sticking”. In series [2], the “True Density” value amounted to 1.4586 g/mL. Besides, the “Loss on Drying - end” value in series [2] worked out at 4.25% w/w. Moreover, the Yield pressure slow in series [2] was 76 MPa and 76.3 (±1.05) MPa. Further, the Yield pressure fast in series [2] is 89 MPa and 88.9 (±2.32) MPa. In addition, the “Loss on Drying - start” value in series [2] came out at 4.07% w/w. The Typical water content in series [3] is reported as 8-15 % w/w.
Regarding `C[S+]([O-])CCCCN=C=S.OC[C@H]1O[C@@H]2O[C@H]3[C@H](O)[C@@H](O)[C@@H](O[C@H]4[C@H](O)[C@@H](O)[C@@H](O[C@H]5[C@H](O)[C@@H](O)[C@@H](O[C@H]6[C@H](O)[C@@H](O)[C@@H](O[C@H]7[C@H](O)[C@@H](O)[C@@H](O[C@H]1[C@H](O)[C@H]2O)O[C@@H]7CO)O[C@@H]6CO)O[C@@H]5CO)O[C@@H]4CO)O[C@@H]3CO` [Form 3], in series [1] (15 mins (simulated gastric)), the “XRPD analysis of residual solids” value was “Form 1”. Further, the “Kinetic solubility, Mean conc” value in series [1] (setting [6]) is “approximately 300 mg/ml”. Also, the “Kinetic solubility, Mean conc” value in series [1] (15 mins (simulated gastric), 0.1 M HCl, Form 3 = Example 5.4.1, listed as 3) was 298 mg/mL. In addition, in series [1] (30 mins (simulated gastric)), the “XRPD analysis of residual solids” value is given as “Form 1”. The “Kinetic solubility, Mean conc” value in series [1] (setting [7]) is 298 mg/mL. The “Kinetic solubility, Mean conc” value in series [1] (setting [8]) is recorded as “approximately 180 mg/ml”. In addition, in series [1] (60 mins (simulated intestinal), 1:1 0.1 M HCl and FaSSIF, listed as 3), the “Kinetic solubility, Mean conc” value is 171 mg/mL. The “Kinetic solubility, Mean conc” value in series [1] (setting [9]) was “approximately 180 mg/ml”. For the same compound, the “Kinetic solubility, Mean conc” value in series [1] (180 mins (simulated intestinal), 1:1 0.1 M HCl and FaSSIF, listed as 3) is 157 mg/mL. In series [2], the compaction classification result is “moderately hard brittle/ductile”, the “sticking on punch or die wall” value is reported as “no evidence of sticking”, the “True Density” value is 1.4562 g/mL and the “Loss on Drying - end” value was found to be 1.13% w/w. Also, in series [2], the Yield pressure slow is 109 MPa and 108.7 (±2.90) MPa; the Yield pressure fast is 140 MPa and 140.4 (±3.65) MPa; the “Loss on Drying - start” value is 1.99% w/w. For the same compound, in “Compression testing”, the “decomposition by 1H-NMR after compression” value is on record as “No decomposition” and the “form by XRPD after compression” value is on record as “still existed as Form 3”. Besides, in series [3] (exposure to ambient conditions (25° C., 40% RH), e.g. 3-7 days), the “water content after equilibration at ambient conditions” value is given as 5-7 % w/w. The “form by XRPD when slurried in water” value in series [4] (2 volumes H2O, ambient temperature overnight, XRPD after 14 and 36 mins) is recorded as “converted to Form 2”. For the same compound, the “form by XRPD after slurry sample left at ambient conditions” value in series [4] (4 further hours at ambient conditions) is “converted from Form 2 to Form 1”. Further, in series [5] (25° C. and 97% RH for 7 days), the “decomposition by 1H-NMR” value is “no decomposition was evident” and the “form by XRPD” value is given as “converted at this very high humidity level to Form 1”. Further, the “decomposition by 1H-NMR” value in series [5] (40° C. and 75% RH for 7 days) is on record as “some decomposition had occurred”.
